Assay results from patent US20260355318A1, “MOLECULAR MACHINES FOR TREATMENT OF CANCER, FUNGAL INFECTIONS, OR BACTERIAL INFECTIONS” (priority 2022, published 2026).

Columns and labels:
[1] = test system: persister cells of E. coli; assay: Persister eradication, E. coli; assay type: cell-based, Escherichia coli; conditions: 1×MIC, 405 nm
Protocol: Persister cells of E. coli were prepared by adding ampicillin (100 μg mL^−1) to exponential-phase cells (OD600 of ≈0.8) followed by continuous agitation for another 3 b, as previously described (Keren et al., 2004). In the case of S. aureus, almost all stationary-phase are considered to be persistent (Keren et al., 2004). S. aureus cells were grown at 37 ° C and 220 rpm in LB broth to an OD600 of 0.3. Cells were then diluted 1:1000 in 25 mL LB and grown for 16 h at 37 ° C and 220 rpm in 250 mL flasks. […] At specified time points (0, 1, 2, 3, 4 and 5, 10 and 15 min), 50-μL aliquots were removed, serially diluted and spot-plated onto LB agar plates to determine colony-forming units per mL (CFU mL^−1). Only dilutions that yielded 10-100 colonies were counted. Results were expressed as log (N/NO) whereby N is the CFU mL^−1 at each irradiation time point and NO is the initial CFU mL^−1 of the corresponding sample. […].

P. aeruginosa [2] = assay: Time-kill / light-dose experiments, P. aeruginosa; assay type: cell-based, Pseudomonas aeruginosa; conditions: for light dose for complete eradication: 0.625 to 5 μM of MM, 405 nm; for time to reduce cell number to limit of detection: 2×MIC, 146 mW cm^−2 405 nm
Protocol: (§1) Serial dilutions of irradiated cell suspensions were prepared in PBS. A volume of 10 AL of the appropriate serial dilutions was spot-plated onto LB agar plates. Following overnight incubation at 30 or 37 ° C, depending on the strain, bacterial viability was assessed as colony forming units (CFU) per mL. Results were expressed as log (N/NO) whereby N is the CFU mL^−1 at each irradiation time point and NO is the initial CFU mL^−1 of the corresponding sample. Only dilutions that yielded 10-100 colonies were counted.

[3] = test system: mitochondrial cytochrome c; assay: Cytochrome c release; assay type: cell-based, Candida albicans; conditions: 2×MIC, p<0.05
Protocol: Cells were harvested for protoplast preparation by digestion with zymolyase 20 T (20 mg mL-1, US Biological Life Sciences, MA, USA) in 0.1 M potassium phosphate buffer (pH 6.0) containing 1 M sorbitol for 1 h at 30 °C. Mitochondrial cytochrome c was extracted and reduced with ascorbic acid (0.5 mg mL^−1) as previously described (Yun and Lee, 2016). The absorbance at 550 nm was determined on a Beckman Coulter DU 800 spectrophotometer (Fullerton, CA, USA). Cytochrome c levels were normalized to the protein content determined using the Pierce assay (Pierce™ BCA Protein Assay Kit, Thermo Fisher Scientific, MA, USA).

S. aureus = assay: Time-kill / light-dose experiments, S. aureus; assay type: cell-based, Staphylococcus aureus; conditions: 0.625 to 5 μM of MM, 405 nm
Protocol: as §1

P. aeruginosa [4] = assay: MIC, P. aeruginosa; assay type: cell-based, Pseudomonas aeruginosa; conditions: Pseudomonas aeruginosa, read-out: MIC of MM
Protocol: (§2) The appropriate volume of an MM stock at 8 mM necessary to achieve a concentration ranging from 0.3125 to 40 μM was pipetted into a 2 mL microcentrifuge tube to which 1 mL of cell suspension prepared as previously described was added. Corresponding negative controls (DMSO only) were prepared in the same way. The mixture was gently mixed by pipetting and incubated in the dark at 30 or 37 ° C, depending on the strain, for 30 min with agitation (220 rpm). Afterward, MM- or DMSO-treated cells were dispensed in one well of a 24-well plate positioned in the center of the light beam (405 nm LED Light, Prizmatix, UHP—F-5-405) placed at the appropriate distance necessary to achieve the desired light intensity of 304 mW cm-2, 146 mW cm2 or 87 mW cm2, as measured with a handheld digital power meter console coupled to an S415C thermal power sensor head (Thorlabs, Newton, MA, USA). The temperature during irradiation was monitored using a thermocouple probe (Model SC-TT-K-30-36-PP; Omega Engineering, Inc., Stanford, CT, USA). Samples were agitated during irradiation. Dark controls were prepared as previously described except that no irradiation was provided.
For MIC determination, samples treated with a range of concentrations of the different MM, as described above and were irradiated one at a time for 5 min at 146 mW cm^−2 (43.8 J cm^−2), after which irradiated aliquots were collected and inoculated into 1 mL MHB in a 2 mL microcentrifuge tube. Samples were incubated overnight at 30 or 37 ° C, depending on the strain, without agitation. Corresponding non-irradiated samples and negative controls (without bacteria) were also included. The following day, cultures were inspected for growth and the MIC was identified. The experimental procedure used to determine the MIC of visible light-activated MMs is schematically depicted in FIG. 26.

E. coli = assay: Electron microscopy (TEM, SEM) of E. coli; assay type: cell-based, Escherichia coli; conditions: 0.5×MIC, 43.8 J cm^−2
Protocol: E. coli was cultured to mid-log phase in MHB media. Cells were collected and resuspended in PBS (1×) to an OD600 of ≈0.05. […] Cells were then irradiated for 5 min at 146 mW cm-2 (43.8 J cm^−2) after which cells were fixed with Karnovsky's fixative (Carlson et al., 2003), and post-fixed with 1% osmium, and dehydrated with a series of ethanol washes. For TEM, samples were embedded in epoxy resin (PolyBed 812; Polyscienses, Inc., Warrington, PA, United States) after dehydration in a graduated 50-100% ethanol concentration series of washes. Ultrathin sections (65 nm) were cut using a Leica EM UC7 ultramicrotome (Leica Microsystems, Wetzlar, Germany) and post-stained with uranyl acetate and lead citrate. Specimens were observed using a JEOL JEM2100 TEM ([…], Japan) operating at an accelerating voltage of 80 kV. For SEM, following ethanol dehydration samples were critical point dried using a Leica EM CPD300 (Leica Microsystems, Wetzlar, Germany), sputter-coated with 10 nm of gold, and imaged with an FEI Apreo SEM (FEI Apreo, ThermoFisher Scientific, Waltham, MA) using a secondary electron detector.

[5] = test system: human embryonic kidney cells (HEK); assay: Toxicity to HEK cells (CellTiter-Glo); assay type: cell-based; conditions: HEK293, 5 min, 405 nm light 146 mW cm^−2, 5 min, read-out: IC50 (HEK viability)
Protocol: Biocompatibility of MM with primary NHDF and HEK293T cells was assessed using the CellTiter-Glo® Luminescent Cell Viability Assay (Promega), per the manufacturer's instructions. The MM concentrations that reduced cell viability by 50% (IC50) were identified and the therapeutic index was calculated as the ratio between the IC50 and the MIC at a light intensity of 146 mW cm^−2.

B. cereus = assay: MIC, B. cereus; assay type: cell-based; conditions: Bacillus cereus, read-out: MIC of MM
Protocol: as §2, with “provided. […]” for “provided.”

| SMILES | time to reduce persister cells to limit of detection [1] [min] | light dose for complete eradication (P. aeruginosa [2]) [J cm^−2] | time to reduce cell number to limit of detection (P. aeruginosa [2]) [min] | mitochondrial cytochrome c levels [3] | light dose for complete eradication (S. aureus) [J cm^−2] | MIC (P. aeruginosa [4]) [µM] | cell morphology (TEM) (E. coli) | IC50 [5] [µM] | MIC (B. cereus) [µM] |
| --- | --- | --- | --- | --- | --- | --- | --- | --- | --- |
| C[C@@H]1Cc2ccc3ccccc3c2/C1=C1\c2ccccc2Sc2cc(NCCN)ccc21 (racemic) [MM 6, N^1-(9-(2-methyl-2,3-dihydro-1H-cyclopenta[a]naphthalen-1-ylidene)-9H-thioxanthen-3-yl)ethane-1,2-diamine] | 5 | 16 | 10 | significant reductions in mitochondrial cytochrome c levels | 16 | 0.625 | substantial changes in cell morphology | 5 | 10 |
| C[C@@H]1Cc2ccc3ccccc3c2/C1=C1\c2ccccc2Sc2cc(NCCN(C)C)ccc21 [MM 1, N^1N^1-dimethyl-N^2-(9-(2-methyl-2,3-dihydro-1H-cyclopenta[a]naphthalen-1-ylidene)-9H-thioxanthen-3-yl) ethane-1,2-diamine] | 10 | 16 | 3 | significant reductions in mitochondrial cytochrome c levels | 16 | 0.625 | substantial changes in cell morphology | 5 | 10 |
